Here are results for four compounds from US20070025991A1, “Use of antagonists of ghrelin or ghrelin receptor to treat intestinal inflammation” (priority 2003, published 2007).

In experiment [1] the test system is IL-8 promoter activity in NCM460 cells expressing human GHS-R. The experiment in a line: IL-8 promoter-luciferase assay in GHS-R-expressing NCM460 cells. In kind it is cell-based. As to the method:
Construction of a reporter construct containing 1521 bp (nucleotides −1481 to +40) of the promoter region of human IL-8 gene has been described previously (Warny, M. et al., J. Clin. Invest., 105:1147-1156 (2000)). IL-8 reporter constructs containing mutations in NF-κB, AP-1 or C/EBP sites have been described previously (Zhao, D. et al., J. Biol. Chem., 276:44464-44471 (2001)). […] Firefly and Renilla luciferase activities in cell extracts were measured using Dual-Luciferase Reporter Assay System (Promega). The relative luciferase activity were then calculated by normalizing IL-8 promoter-driven Firefly luciferase activity to control Renilla luciferase activity. […]
NCM460 cells were transiently transfected with pMMP-HA-GHSR or a control plasmid pMMP-LacZ along with IL-8 promoter-luciferase construct plus an internal control construct. The transfected cells were stimulated with ghrelin for 6 hours and the IL-8 promoter activity was measured.
To examine whether ghrelin-induced IL-8 gene expression involves the NF-κB pathway, NCM-GHS-R cells were transiently transfected with IL-8-luciferase construct along with an internal control plasmid. […] IL-8 promoter activity was measured. […]

Experiment [2] concerns ghrelin-induced MAP kinase phosphorylation in IEC-GHS-R cells (rat GHS-R). The experiment in a line: MAP kinase phosphorylation in IEC-GHS-R cells (western blot, phospho-MAPK antibody). The class given is cell-based. On the procedure: To examine whether an anti-ghrelin IgG or a GHS-R antagonist [D-lys-3]-GHRP-6 blocks ghrelin-mediated responses in experimental colitis, experiments were first performed to test the efficiency of these reagents using in vitro assays. Since ghrelin was previously shown to activate MAP kinase in human HepG2 cells, the effect of the anti-ghrelin antibody or [D-lys-3]-GHRP-6 on ghrelin-induced MAP kinase activation was determined. For these experiments, rat full-length GHS-R cDNA was cloned from rat brain RNA and then subcloned into the retroviral expression vector pMMP. The retroviruses expressing rat GHS-R were used to infect normal rat intestinal epithelial cell line IEC-6 cells (from ATCC). The resulting cell line was named IEC-GHS-R cells.
The response of the IEC-GHS-R to rat ghrelin was determined using this MAP kinase assay. Briefly, serum starved IEC-GHS-R cells were treated with ghrelin (10^−7 M) for various times. […]
To determine the effect of an anti-ghrelin IgG or a GHS-R antagonist [D-lys-3]-GHRP on ghrelin-induced MAPK phosphorylation, IEC-GHS-R cells were pretreated with the anti-ghrelin IgG (2 and 5 μg/ml) or with normal rabbit IgG or [D-lys-3]-GHRP-6 (1-20 nM) for 10 minutes and then treated with rat ghrelin for 5 minutes. MAP kinase phosphorylation was then determined.
(A western blot detects proteins with antibodies after separation by electrophoresis.)

Experiment [3] has as its system toxin A-induced intestinal fluid secretion. Also on record: species or system mice. The conditions noted are these: mouse, in vivo, ip.
The test system of the next experiment is food intake. Particulars: food intake induced by centrally injected ghrelin / GHS-R-induced; cited from earlier work.
The target of another experiment is T1, GHS-R (Rattus norvegicus, UniProt O08725).
T1 construct: host or cells: CHO cells stably expressing rat GHS-R (inferred, same citation)
The conditions noted are these: cited from earlier work.

In experiment [4] the test system is IL-8 secretion in NCM-GHS-R cells. Briefly: IL-8 secretion (ELISA) in NCM-GHS-R cells. Particulars: serum starved NCM-GHS-R cells, ghrelin 10^−7 M, various times. The class given is cell-based, human. A general note: ELISA stands for enzyme-linked immunosorbent assay.
For experiment [5], the system named is NCM460, HT29 and Caco-2 cells. The experiment in a line: IL-8 gene expression in colonic epithelial cell lines with endogenous ghrelin receptor. The class given is cell-based, human. Particulars: NCM460, HT29, Caco-2 with very low endogenous ghrelin receptor.
For experiment [6], the target named is human GHS-R with HA epitope (pMMP-HA-GHSR), transiently expressed in NCM460 cells (human) (UniProt Q92847). The experiment in a line: cell-based or functional assay.

Non-standard residues stand in square brackets, D forms with d. No end group written: not given here.

T1 sequence (O08725 whole entry): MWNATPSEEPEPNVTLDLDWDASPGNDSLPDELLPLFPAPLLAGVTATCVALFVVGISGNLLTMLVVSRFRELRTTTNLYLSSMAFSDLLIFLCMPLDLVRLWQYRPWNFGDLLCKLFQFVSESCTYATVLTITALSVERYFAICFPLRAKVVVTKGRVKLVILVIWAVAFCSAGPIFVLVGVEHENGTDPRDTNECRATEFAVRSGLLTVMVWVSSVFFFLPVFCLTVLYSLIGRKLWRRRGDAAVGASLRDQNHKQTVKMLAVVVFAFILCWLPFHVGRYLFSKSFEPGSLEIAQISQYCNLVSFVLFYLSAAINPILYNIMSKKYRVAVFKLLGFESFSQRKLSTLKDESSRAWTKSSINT
human GHS-R with HA epitope (pMMP-HA-GHSR), transiently expressed in NCM460 cells (human), sequence (Q92847 whole entry): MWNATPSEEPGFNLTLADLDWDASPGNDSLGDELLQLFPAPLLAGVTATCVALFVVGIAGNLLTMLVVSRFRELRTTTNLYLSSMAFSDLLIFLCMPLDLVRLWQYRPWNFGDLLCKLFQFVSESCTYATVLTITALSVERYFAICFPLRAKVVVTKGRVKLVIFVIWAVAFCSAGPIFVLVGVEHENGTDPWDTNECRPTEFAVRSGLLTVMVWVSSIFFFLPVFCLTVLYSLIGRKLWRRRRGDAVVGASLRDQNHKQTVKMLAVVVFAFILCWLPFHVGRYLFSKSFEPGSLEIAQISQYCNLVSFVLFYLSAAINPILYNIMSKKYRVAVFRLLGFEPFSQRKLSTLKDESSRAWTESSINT

Consider `O=C(/C=C/c1ccc(O)c(O)c1)OCCc1ccccc1` [CAPE], for which the “inhibition of ghrelin-induced IL-8 promoter activity” value in experiment [1] (NCM-GHS-R cells, 10 μg/ml CAPE 30 minutes pretreatment, ghrelin 10^−7 M 4 hours) is given as “inhibited ghrelin-induced IL-8 promoter activity”.

“His-D-Trp-D-Lys-Trp-D-Phe-Lys-NH2 (H[dW][dK]W[dF]K-NH2; N-terminus assumed; SMILES NCCCC[C@H](NC(=O)[C@@H](Cc1ccccc1)NC(=O)[C@H](Cc1c[nH]c2ccccc12)NC(=O)[C@@H](CCCCN)NC(=O)[C@@H](Cc1c[nH]c2ccccc12)NC(=O)[C@@H](N)Cc1c[nH]cn1)C(N)=O) [[D-lys-3]-GHRP-6, commercially available hexapeptide ghrelin receptor (GHS-R) antagonist]”: the “inhibition of ghrelin-induced MAPK phosphorylation” value in experiment [2] (pretreated 10 minutes (anti-ghrelin IgG 2 and 5 μg/ml; [D-lys-3]-GHRP-6 1-20 nM), then rat ghrelin 5 minutes) is recorded as “inhibited ghrelin-induced MAPK phosphorylation in a dose-dependent manner”. In experiment [3], the “basal fluid secretion in buffer-exposed loops” value is listed as “no significant effect” and the “inhibition of toxin A-induced fluid secretion” value is listed as “approximately 50%”. The “block of food intake” value with food intake is on record as “efficiently block”. In addition, in the experiment with GHS-R, the “block of GHS-R-induced calcium response” value is reported as “efficiently block”.

On to ghrelin, for which, in experiment [2] (serum starved IEC-GHS-R cells, ghrelin 10^−7 M, various times), the MAP kinase phosphorylation result is “induces MAP kinase phosphorylation in a time-dependent manner”. Moreover, the “stimulation of IL-8 promoter activity” value in experiment [1] (NCM460 cells transiently transfected with pMMP-HA-GHSR, ghrelin for 6 hours) is “approximately 8 fold”. Besides, the “IL-8 secretion in conditioned media” value in experiment [4] is listed as “significantly stimulates IL-8 secretion”. Besides, the “IL-8 gene expression on stimulation” value in experiment [5] is on record as “does not mediate IL-8 gene expression”.

The compound “ghrelin (species not stated, used on human NCM460-derived cells) (peptide)” returned an IL-8 promoter activity (luciferase reporter) in experiment [6] of 8 fold.
